Test results: publication PMC4370454, “The 4′-Hydroxyl Group of Resveratrol Is Functionally Important for Direct Activation of PPARα” (PLoS ONE, 2015)

biological target: T1, PDE (bovine brain-derived phosphodiesterase, majority PDE4 isozyme); assay: PDE-Glo phosphodiesterase assay, […] cAMP substrate; assay type: biochemical, Bos taurus
T1 construct: bovine brain-derived PDE (Sigma), majority PDE4 isozyme

IC50 [µM]	Structure (SMILES)
26.5	Oc1ccc(/N=N/c2ccccc2)cc1 [4-PAP, 4-phenylazophenol]
27.8	Oc1ccc(/C=C/c2ccccc2)cc1 [T4HS, trans-4-hydroxystilbene]

Structure (SMILES)	IC50 [µM]
Oc1ccc(/C=C/c2cc(O)cc(O)c2)cc1 [resveratrol]	19
